Reference: US12552802B2, “Fused [7,5] bicyclic pyrazole derivatives and methods of use thereof for the treatment of herpesviruses” (Merck Sharp & Dohme LLC, priority 2020, dated 2026)

Columns and labels:
HSV2 = assay: Viral qPCR assay, HSV2 in Vero cells; format: cell-based; settings: Human alphaherpesvirus 2, ~72 hrs, viral genome copies by qPCR, read-out: HSV2 VERO Cell (EC50)
Experimental: (§1) MRC5 cells, Vero cells, and MeWo cells were obtained from ATCC and were maintained at 37° C./5% CO2/90% relative humidity in Minimal Essential Medium with 10% fetal bovine serum, […] L-glutamine, 100 units/ml penicillin and 100 ug/ml streptomycin. Assay plates were prepared by dispensing compounds dissolved in DMSO into wells of 384 well collagen-coated plates using an ECHO acoustic dispenser. Each compound was tested in a 10-point, serial 3-fold dilution. Controls included uninfected cells and infected cells treated only with DMSO. Assays were initiated by mixing selected cells, in suspension, with virus, and dispensing 50 μl/well infected cells to pre-plated compounds. Plates were incubated at 37° C./5% CO2/90% relative humidity for ˜72 hrs to permit genomic replication, and infected cells were lysed by the addition of an equal volume of lysis buffer (10 mM Tris-HCl, pH8, 50 mM KCl, 2 mM MgCl2, 0.45% NP-40, 0.45% Tween-20, and 100 μg/ml proteinase K). […] Levels of a viral gene and of the cellular control, PPIA (Thermo Fisher Assay ID=Hs04194521_s1), were measured in separate 10 μL qPCR assays using TaqMang Gene Expression Master Mix (Applied Biosystems), and an 7900HT Fast Real-Time PCR System with 384-Well Block Module. 7-point, serial 10-fold dilutions of a plasmid standard were run on each plate to generate a standard curve, and genome copies numbers were calculated by plotting experimental Ct onto linear regression of the standard curve. […] Calculated % effects were fit using a 4-parameter algorithm, and EC50 was reported.
(§2) MRC5 cells, Vero cells, and MeWo cells were obtained from ATCC and were maintained at 37° C./5% CO2/90% relative humidity in Minimal Essential Medium with 10% fetal bovine serum, […] L-glutamine, 100 units/ml penicillin and 100 ug/ml streptomycin. […] Levels of a viral gene were measured in 10 μL qPCR assays using TaqMang Gene Expression Master Mix (Applied Biosystems), and an 7900HT Fast Real-Time PCR System with 384-Well Block Module. […]

HCMV Strain AD169 = assay: Viral qPCR assay, CMV in MRC5 cells; format: cell-based, Human cytomegalovirus; settings: Human betaherpesvirus 5, AD169, ~72 hrs, viral genome copies by qPCR, read-out: CMV MRC5 Cell (EC50)
Experimental: as §1, §2

VZV = assay: Viral qPCR assay, VZV in MeWo cells; format: cell-based, varicella zoster virus; settings: Human alphaherpesvirus 3, ~72 hrs, viral genome copies by qPCR, read-out: VZV MEWO Cell (IC50)
Experimental: as §1, §2

HSV-1 Strain F = assay: Viral qPCR assay, HSV1 in Vero cells; format: cell-based; settings: Human alphaherpesvirus 1, ~72 hrs, viral genome copies by qPCR, read-out: HSV1 VERO Cell (EC50)
Experimental: as §1, §2

[1] = target: T1, varicella zoster virus (VZV) DNA polymerase (Varicella-zoster virus, UniProt P09252); assay: VZV polymerase assay; format: biochemical; settings: polymerase 0.4 nM, AlphaLISA detection
T1 construct: made in house; host or cells: SF21 insect cells (baculovirus vector)
T1 sequence (P09252 whole entry): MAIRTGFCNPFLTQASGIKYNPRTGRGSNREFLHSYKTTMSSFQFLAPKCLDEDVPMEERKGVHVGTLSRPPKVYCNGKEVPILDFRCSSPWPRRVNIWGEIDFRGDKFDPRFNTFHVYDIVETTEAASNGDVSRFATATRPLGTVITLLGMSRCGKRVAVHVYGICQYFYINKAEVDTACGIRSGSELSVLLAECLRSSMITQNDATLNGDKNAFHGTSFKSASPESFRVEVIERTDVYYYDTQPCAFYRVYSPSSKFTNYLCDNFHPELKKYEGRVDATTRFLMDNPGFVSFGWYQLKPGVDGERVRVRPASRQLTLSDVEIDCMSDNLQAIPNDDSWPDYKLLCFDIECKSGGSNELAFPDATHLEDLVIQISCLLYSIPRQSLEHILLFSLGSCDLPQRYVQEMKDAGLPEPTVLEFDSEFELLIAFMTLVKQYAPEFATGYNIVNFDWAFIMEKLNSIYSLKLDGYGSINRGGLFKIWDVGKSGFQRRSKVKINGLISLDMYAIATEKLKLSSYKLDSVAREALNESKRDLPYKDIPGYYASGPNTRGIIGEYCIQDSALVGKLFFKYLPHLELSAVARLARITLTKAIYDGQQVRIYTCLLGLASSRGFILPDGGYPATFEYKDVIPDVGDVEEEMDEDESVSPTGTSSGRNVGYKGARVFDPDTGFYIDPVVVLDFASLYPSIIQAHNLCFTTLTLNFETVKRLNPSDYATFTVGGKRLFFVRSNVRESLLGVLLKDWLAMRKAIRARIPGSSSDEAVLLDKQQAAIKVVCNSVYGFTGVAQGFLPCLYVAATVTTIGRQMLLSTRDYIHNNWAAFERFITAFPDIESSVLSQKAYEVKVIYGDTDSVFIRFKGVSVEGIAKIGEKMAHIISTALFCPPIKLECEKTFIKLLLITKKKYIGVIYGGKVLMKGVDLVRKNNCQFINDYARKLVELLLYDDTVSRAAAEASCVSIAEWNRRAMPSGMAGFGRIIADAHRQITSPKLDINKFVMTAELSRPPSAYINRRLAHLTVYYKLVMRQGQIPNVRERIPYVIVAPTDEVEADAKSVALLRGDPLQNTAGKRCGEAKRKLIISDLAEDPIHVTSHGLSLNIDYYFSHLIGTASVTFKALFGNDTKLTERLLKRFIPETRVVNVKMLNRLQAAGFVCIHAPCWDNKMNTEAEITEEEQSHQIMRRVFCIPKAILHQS
Experimental: (§3) Human cytomegalovirus (HCMV) and varicella zoster virus (VZV) DNA polymerases were expressed via baculovirus vector in SF21 cells and purified. Heterodimeric nucleic acid substrate used in the herpesvirus polymerase reactions was generated by annealing a 59-mer template to a 17-mer digoxigenin-labeled primer. Polymerase (HCMV final concentration of 0.2 nM; VZV final concentration of 0.4 nM) was combined with an inhibitor compound or DMSO in assay buffer (10 mM HEPES, pH 7.5, 25 mM KCl, 25 mM NaCl, 5 mM MgCl2, 5% glycerol, 0.67 mg/ml bovine serum albuminutes (albuminate?), and 1 mM tris(2-carboxyethyl)phosphine), and this mixture was pre-incubated for 30 minutes at room temperature in 384-well microtiter plates. The polymerization reaction was initiated by the addition of template/primer substrate (final concentration: 1.6 nM), and dNTPs (final concentration: 24 nM dCTP, 24 nMdGTP, 16 nM dATP, 16 nM dTTP, and 0.8 nM biotin-dUTP). After 60 minutes incubation at 37° C., reactions were terminated with quench buffer (25 mM HEPES pH 7.5, 100 mM NaCl, 0.25% Tween-20, 12 mM EDTA, and 1 mg/ml bovine serum albumin). Incorporation of biotinylated UTP was detected with 2.5-5 ug/ml anti-DIG AlphaLISA acceptor beads and 5-10 ug/ml streptavidin AlphaLISA donor beads (Perkin Elmer). Compound effects were normalized to the window defined by the controls (DMSO only and pre-quenched wells), and were fit using a 4-parameter algorithm to report an IC50.

[2] = target: T2, Human cytomegalovirus (HCMV) DNA polymerase (Human cytomegalovirus, UniProt P08546); assay: HCMV polymerase assay; format: biochemical; settings: polymerase 0.2 nM, AlphaLISA detection; read-out: CMV (IC50)
T2 construct: made in house; host or cells: SF21 insect cells (baculovirus vector)
T2 sequence (P08546 whole entry): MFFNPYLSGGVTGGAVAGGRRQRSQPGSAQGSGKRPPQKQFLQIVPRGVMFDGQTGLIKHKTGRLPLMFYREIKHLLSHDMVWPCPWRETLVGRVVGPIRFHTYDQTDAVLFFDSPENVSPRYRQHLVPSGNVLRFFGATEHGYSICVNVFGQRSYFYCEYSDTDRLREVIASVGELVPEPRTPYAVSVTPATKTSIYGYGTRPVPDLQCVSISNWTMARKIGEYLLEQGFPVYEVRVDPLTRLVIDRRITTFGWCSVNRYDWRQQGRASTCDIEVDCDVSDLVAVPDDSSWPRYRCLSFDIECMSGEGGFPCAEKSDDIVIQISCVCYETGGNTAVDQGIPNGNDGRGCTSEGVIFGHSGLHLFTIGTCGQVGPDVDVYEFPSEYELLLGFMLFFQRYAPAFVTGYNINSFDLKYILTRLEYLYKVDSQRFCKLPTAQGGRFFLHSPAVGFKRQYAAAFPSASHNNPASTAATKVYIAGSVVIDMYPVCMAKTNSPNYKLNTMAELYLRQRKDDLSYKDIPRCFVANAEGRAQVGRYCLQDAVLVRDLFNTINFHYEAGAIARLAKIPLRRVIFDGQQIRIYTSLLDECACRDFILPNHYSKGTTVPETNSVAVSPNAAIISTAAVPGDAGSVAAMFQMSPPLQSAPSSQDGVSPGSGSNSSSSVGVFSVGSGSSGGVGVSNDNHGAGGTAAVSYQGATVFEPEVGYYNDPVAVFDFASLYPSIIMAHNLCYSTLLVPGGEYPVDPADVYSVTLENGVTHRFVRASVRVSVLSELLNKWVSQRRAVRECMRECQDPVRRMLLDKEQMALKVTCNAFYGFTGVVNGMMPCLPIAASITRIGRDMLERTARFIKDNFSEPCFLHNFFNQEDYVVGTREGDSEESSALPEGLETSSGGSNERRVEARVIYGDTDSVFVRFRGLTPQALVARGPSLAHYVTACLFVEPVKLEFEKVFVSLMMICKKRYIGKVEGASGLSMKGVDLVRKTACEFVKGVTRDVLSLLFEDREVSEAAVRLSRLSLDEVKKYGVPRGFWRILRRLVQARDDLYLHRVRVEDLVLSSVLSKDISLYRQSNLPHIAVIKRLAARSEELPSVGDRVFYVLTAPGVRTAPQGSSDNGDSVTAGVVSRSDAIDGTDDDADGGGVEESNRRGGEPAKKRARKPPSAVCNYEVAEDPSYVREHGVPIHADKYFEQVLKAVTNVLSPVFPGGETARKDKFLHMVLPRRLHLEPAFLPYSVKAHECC
Experimental: as §3

Row | EC50 (HSV2) | IC50 (VZV) | EC50 (HSV-1 Strain F) | IC50 [1] | IC50 [2] | SMILES | EC50 (HCMV Strain AD169)
1 | 7.97 µM | 1.96 µM | 3.29 µM | 0.26 µM | 0.802 µM | Cn1nc(C(=O)NCc2ccc(Cl)cc2)c2c1CCN(C[C@H]1COC(=O)N1)CC2 [Compound 1] | 3.72 µM
2 | 7.82 µM | 1.44 µM | 4.58 µM | 0.373 µM | 0.805 µM | Cc1nnn(C)c1CN1CCc2c(C(=O)NCc3ccc(Cl)cc3)nn(C)c2CC1 [Compound 3] | 12.4 µM
3 | 5.68 µM | 2.99 µM | 3.27 µM | 0.251 µM | 0.762 µM | Cn1nc(C(=O)NCc2ccc(Cl)cc2)c2c1CCN(C[C@H]1CCC(=O)N1)CC2 [Compound 2] | 8.68 µM
